# Test results as given in patent publication US8048880B2, “Treatment of cardiovascular disease and dyslipidemia using secretory phospholipase A2 (SPLA2) inhibitors and SPLA2 inhibitor combination therapies” (Anthera Pharmaceuticals, Inc., priority 2007, dated 2011).
# How the values were obtained:
# [1] = Body weight of ApoE−/− mice on high fat diet during 16 weeks of A-002 (Example 1); assay type: in vivo; conditions: oral gavage
# Experimental: Male ApoE^−/− mice were fed a high fat diet (21% fat, 0.15% cholesterol, 19.5% casein) ad libitum for two weeks in order to acclimate to the diet. Plasma cholesterol levels and body weight were measured in order to obtain baseline levels, and mice were randomized into three groups of 20 mice based on these measurements. After the acclimation period, mice remained on the high fat diet and were administered A-002 (30 mg/kg or 90 mg/kg) or vehicle only (5% acacia) twice a day for 16 weeks by oral gavage.
# Plasma cholesterol levels and body weight were measured at 4, 8, 12, and 16 weeks after the start of A-002 administration. Comparisons of measurements between test and control mice at each time period were performed using a two-way analysis of variance test (ANOVA) for repeated measures, followed by post-hoc Bonferroni test for significance.
# [2] = system: sPLA2; experiment: Serum sPLA2 concentration in humans, A-002 twice a day (Example 4); assay type: in vivo, human; conditions: ITT population, week 8
# Experimental: (§1) 204 human subjects from the United States with CVD, specifically stable coronary artery disease, were randomized to receive placebo or A-002 via oral administration twice a day over an eight week administration period at dosages of 50 mg, 100 mg, 250 mg, or 500 mg. Levels of various lipids and inflammatory markers were measured at the outset of the trial and at the end of weeks four and/or eight. For data sets with a normal distribution, mean levels of lipids or inflammatory markers were analyzed. For data sets with non-normal distribution, median levels were analyzed. […] In addition, administration of A-002 decreased median levels of CRP (Table 11).
# [3] = system: human subjects with CVD, specifically stable coronary artery disease; experiment: Serum lipid levels in humans, A-002 twice a day for eight weeks (Example 4); assay type: in vivo
# Experimental: as §1
# The combined effect of A-002 and statin administration on LDL levels was tested in a population of 332 subjects. This population consisted of the original 204 United States subjects, plus an additional 128 subjects from the Ukraine with stable CAD that received placebo or A-002 based according to the same protocol as the United States subjects. […] Similarly, A-002 decreased LDL levels in subjects receiving a variety of non-statin compounds used in the treatment of CVD, including ezetimibe, AEGR-733/ezetimibe, colesevelam hydrochloride (WelChol®), MK-0524A (Cordaptive®), lisinopril/MC-1 antibody (MC-4232), and Angiotensin Receptor Blocker (ARB)/MC-1 (MC-4262).
# [4] = system: CRP; experiment: Serum CRP concentration in humans, A-002 once a day (Example 6); assay type: in vivo, human; conditions: week 8
# Experimental: 135 human subjects over the age of 18 with CVD, specifically stable CAD, were randomized to receive either placebo or one of two dosages (250 mg or 500 mg) of A-002 via once a day oral administration over an eight week time period. 89 of the subjects received A-002, while 46 of the subjects received placebo. Subjects that were receiving statins or other compounds used in the treatment of CVD at the outset of the trial continued to receive those therapeutics throughout the trial. 121 of the 135 subjects were on statins during the trial. There was little variation between dosage groups with respect to age, height, weight, or BMI.
# Levels of various lipids and inflammatory markers were measured at the outset of the trial and at weeks two, four, and/or eight weeks after the start of A-002 administration. In addition, plasma A-002 levels were measured at various intervals. Lipids that were measured included LDL, small LDL particle, oxidized LDL, non-HDL cholesterol, total cholesterol, ApoB, and triglycerides. In addition, levels of the inflammatory marker CRP were measured. Lipid and inflammatory marker levels at each timepoint were compared to the baseline measurements to determine the effect of A-002 administration. For data sets with a normal distribution, mean levels of lipids or inflammatory markers were analyzed. For data sets with non-normal distribution, median levels were analyzed. LDL particle size was also assessed.
# [5] = diabetic subpopulation, week 8, A-002 twice a day
# [6] = ezetimibe subpopulation (ezetimibe 10 mg), week 8, A-002 twice a day
# [7] = metabolic syndrome subpopulation, week 8, A-002 twice a day
# [8] = non-statin subpopulation with baseline serum LDL greater than or equal to 72 mg/dl, week 8, A-002 twice a day
# [9] = non-statin subpopulation, week 4, A-002 twice a day
# [10] = non-statin subpopulation, week 8, A-002 twice a day
# [11] = serum, ITT population, week 8, A-002 50-500 mg twice a day
# [12] = serum, ITT population, week 8, A-002 twice a day
# [13] = statin subpopulation (US + Ukraine), week 4, A-002 twice a day
# [14] = statin subpopulation (US + Ukraine), week 8, A-002 twice a day
# [15] = statin subpopulation (US), week 8, A-002 twice a day
# [16] = statin subpopulation with baseline serum LDL greater than or equal to 72 mg/dl, week 8, A-002 twice a day
# [17] = subpopulation with baseline serum LDL greater than or equal to 72 mg/dl, week 8, A-002 twice a day
# [18] = summary Table 20, A-002 alone, statin alone or A-002 plus statin
# [19] = statin subpopulation with baseline serum LDL greater than 70 mg/dl
smiles,measurement,setting,value
"CCc1c(C(=O)C(N)=O)c2c(OCC(=O)OC)cccc2n1Cc1ccccc1 [A-002, [[3-(2-Amino-1,2-dioxoethyl)-2-ethyl-1-(phenylmethyl)-1H-indol-4-yl]oxy]acetic acid methyl ester]",Body weight increase over the 16 week test period,[1]; 30 mg/kg A-002 twice a day,~150%
same,Body weight increase over the 16 week test period,[1]; 90 mg/kg A-002 twice a day,~141%
same,% change vs. baseline (median [sPLA2]),[2],−86.96%
same,Change in median [sPLA2] vs. baseline,[2],-2.00 ng/mL
same,reduction (decrease) of mean serum small LDL particle levels,"[3]; at eight weeks, United States population, text restating Tables 14 and 17",3.25%
same,decrease of mean serum LDL levels,"[3]; at eight weeks, United States subjects with baseline LDL of 72 mg/dl or greater, text restating Tables 15 and 19",8.23%
same,decrease of mean serum LDL levels,"[3]; at week eight, combined United States and Ukraine populations, Tables 16 and 18",4.22%
same,decrease of mean serum LDL levels,"[3]; at week four, combined United States and Ukraine populations, Tables 16 and 18",6.93%
same,% change vs. baseline (mean [LDL]),[3]; [5],−16.64%
same,Change in mean [LDL] vs. baseline,[3]; [5],-10.6 mg/dL
same,% change vs. baseline (mean [LDL]),[3]; [6],−17.8%
same,Change in mean [LDL] vs. baseline,[3]; [6],-15.4 mg/dL
same,% change vs. baseline (median [TG]),[3]; [7],−13.99%
same,Change in median [TG] vs. baseline,[3]; [7],-24.0 mg/dL
same,% change vs. baseline (mean [LDL]),[3]; [8],−8.23%
same,Change in mean [LDL] vs. baseline,[3]; [8],-9.2 mg/dL
same,% change vs. baseline (mean [LDL]),[3]; [9],−6.93%
same,Change in mean [LDL] vs. baseline,[3]; [9],-8.7 mg/dL
same,% change vs. baseline (mean [LDL]),[3]; [10],−4.22%
same,% change vs. baseline (mean [small LDL particle]),[3]; [10],−3.25%
same,Change in mean [LDL] vs. baseline,[3]; [10],-5.3 mg/dL
same,Change in mean [small LDL particle] vs. baseline,[3]; [10],-24.0 nmol/L
same,% change vs. baseline (mean [LDL]),[3]; [11],−10.68%
same,Change in mean [LDL] vs. baseline,[3]; [11],-8.2 mg/dL
same,% change vs. baseline (mean [LDL particle]),[3]; [12],−7.13%
same,% change vs. baseline (mean [TG]),[3]; [12],−6.67%
same,% change vs. baseline (mean [small LDL particle]),[3]; [12],−8.33%
same,% change vs. baseline (mean [total cholesterol]),[3]; [12],−8.16%
same,Change in mean [LDL particle] vs. baseline,[3]; [12],-73.6 nmol/L
same,Change in mean [TG] vs. baseline,[3]; [12],-10.1 mg/dL
same,Change in mean [small LDL particle] vs. baseline,[3]; [12],-61.3 nmol/L
same,Change in mean [total cholesterol] vs. baseline,[3]; [12],-12.8 mg/dL
same,% change vs. baseline (mean [LDL]),[3]; [13],−14.04%
same,Change in mean [LDL] vs. baseline,[3]; [13],-10.8 mg/dL
same,% change vs. baseline (mean [LDL]),[3]; [14],−12.48%
same,Change in mean [LDL] vs. baseline,[3]; [14],-9.6 mg/dL
same,% change vs. baseline (mean [small LDL particle]),[3]; [15],−9.00%
same,Change in mean [small LDL particle] vs. baseline,[3]; [15],-66.2 nmol/L
same,% change vs. baseline (mean [LDL]),[3]; [16],−16.27%
same,Change in mean [LDL] vs. baseline,[3]; [16],-15.0 mg/dL
same,LDL levels in subjects receiving non-statin compounds used in the treatment of CVD,"[3]; subjects on ezetimibe, AEGR-733/ezetimibe, colesevelam hydrochloride, MK-0524A, MC-4232 or MC-4262",decreased
same,% change vs. baseline (mean [LDL]),[3]; [17],−14.68%
same,Change in mean [LDL] vs. baseline,[3]; [17],-14.0 mg/dL
same,Observed change following administration: Mean serum [LDL] at week 4,[3]; [18],−6.93%
same,Observed change following administration: Mean serum [LDL] at week 8,[3]; [18],−4.22%
same,Observed change following administration: Mean serum [LDL] in ≧72 mg/dl subpopulation at week 8,[3]; [18],−8.23%
same,Observed change following administration: Mean serum [small LDL particle] at week 8,[3]; [18],−3.25%
same,Observed change following administration: Mean serum [LDL] at week 8,"[3]; summary Table 22, A-002 alone, ezetimibe alone or A-002 plus ezetimibe",−4.22%
same,% change vs. baseline (median [CRP]),[4]; ITT population,+5.4%
same,% change vs. baseline (median [CRP]),[4]; [19],+9.1%
same,Change in median [CRP] vs. baseline,[4]; [19],+0.10 mg/L
same,% change vs. baseline (median [CRP]),[4]; statin subpopulation,+8.7%
same,Change in median [CRP] vs. baseline,[4]; statin subpopulation,+0.10 mg/L
